# Active and inactive are the calls of the source. The rule behind the calls is not given here.
# Assays:
# Huh-7 [1] = assay: In vivo antitumor activity against human Huh-7 cells xenografted in female BALB/c mouse assessed as reduction in Ki67 expression in tumor at 2 mg/kg, iv total 4 doses measured on day 17 relative to control; format: functional, organism-based; conditions: time 17.0 day
# Hep 3B2 = assay: Cell cycle arrest in human Hep3B cells assessed as accumulation of cells at G0/G1 phase at 10 nM measured after 24 hrs incubation by PI staining based flow cytometry (reference value: 48%); format: functional
# Huh-7 [2] = assay: Cell cycle arrest in human Huh-7 cells assessed as accumulation of cells at G0/G1 phase at 10 nM measured after 24 hrs incubation by PI staining based flow cytometry (reference value: 47.97%); format: functional
# Huh-7 [3] = assay: Cell cycle arrest in human Huh-7 cells assessed as accumulation of cells at G0/G1 phase at 30 nM measured after 24 hrs incubation by PI staining based flow cytometry (reference value: 47.97%); format: functional
# Huh-7 [4] = assay: Cell cycle arrest in human Huh-7 cells assessed as accumulation of cells at G0/G1 phase at 100 nM measured after 24 hrs incubation by PI staining based flow cytometry (reference value: 47.97%); format: functional
# Huh-7 [5] = assay: Cell cycle arrest in human Huh-7 cells assessed as accumulation of cells at S phase at 100 nM measured after 24 hrs incubation by PI staining based flow cytometry (reference value: 33.15%); format: functional
# LX-2 [6] = assay: Cell cycle arrest in human LX-2 cells assessed as accumulation of cells at G2/M phase at 10 nM measured after 24 hrs incubation by PI staining based flow cytometry (reference value: 14.65%); format: functional
# LX-2 [7] = assay: Cell cycle arrest in human LX-2 cells assessed as accumulation of cells at S phase at 10 nM measured after 24 hrs incubation by PI staining based flow cytometry (reference value: 36.93%); format: functional
# LX-2 [8] = assay: Cell cycle arrest in human LX-2 cells assessed as accumulation of cells at G2/M phase at 30 nM measured after 24 hrs incubation by PI staining based flow cytometry (reference value: 14.65%); format: functional
# Huh-7 [9] = assay: Cell cycle arrest in human Huh-7 cells assessed as accumulation of cells at G0/G1 phase at 50 nM measured after 18 hrs incubation by PI staining based flow cytometry (reference value: 44.20%); format: functional
# Huh-7 [10] = assay: Cell cycle arrest in human Huh-7 cells assessed as accumulation of cells at S phase at 50 nM measured after 18 hrs incubation by PI staining based flow cytometry (reference value: 37.30%); format: functional
# Huh-7 [11] = assay: Cell cycle arrest in human Huh-7 cells assessed as accumulation of cells at G0/G1 phase at 50 nM measured after 24 hrs incubation by PI staining based flow cytometry (reference value: 44.20%); format: functional
# Huh-7 [12] = assay: Radiosensitivity in human Huh-7 cells assessed as […] pre-treated overnight at 10 nM followed by irradiated with 2 Gy and measured after 14 days post treatment by crystal staining based clonogenic assay relative to compound alone/irradiation alone; format: functional; conditions: time 14.0 day
# Huh-7 [13] = assay: Induction of DNA damage in human irradiated Huh-7 cells assessed as increase in DNA double break by measuring number of gamma-H2AX foci formation at 100 nM measured after 24 hrs by immunostaining assay (reference value: 6 +/- 2 foci); format: functional
# Huh-7 [14] = assay: In vivo antitumor activity against human Huh-7 cells xenografted in female BALB/c mouse assessed as reduction in tumor volume at 0.5 mg/kg, iv total 4 doses measured on day 17 relative to control; format: functional; set-up: scale not given: the % may be the effect or the level left; conditions: time 17 day
# Huh-7 [15] = assay: In vivo antitumor activity against human Huh-7 cells xenografted in female BALB/c mouse assessed as delay in tumor growth at 1 mg/kg, iv followed by irradiated with 2 Gy for 2 consecutive days, once a week for 3 weeks measured on day 22; format: functional, organism-based; conditions: time 22.0 day
# Huh-7 [16] = assay: In vivo antitumor activity against human Huh-7 cells xenografted in female BALB/c mouse assessed as delay in tumor growth at 1 mg/kg, iv for 2 consecutive days, once a week for 3 weeks measured on day 22; format: functional, organism-based; conditions: time 22.0 day
smiles,measurement,setting,value
CC[C@H](C)[C@@H]([C@@H](CC(=O)N1CCC[C@H]1[C@H](OC)[C@@H](C)C(=O)N[C@H](C)[C@@H](O)c1ccccc1)OC)N(C)C(=O)[C@@H](NC(=O)[C@H](C(C)C)N(C)C(=O)OCc1ccc(NC(=O)[C@H](CCCNC(N)=O)NC(=O)[C@@H](NC(=O)CCCCCN2C(=O)CC(SC[C@H](N)C(=O)N[C@@H](CO)C(=O)N[C@@H](CC(N)=O)C(=O)N[C@@H](CC(=O)O)C(=O)N[C@@H](CCCNC(=N)N)C(=O)N3CCC[C@@H]3C(=O)N3CCC[C@@H]3C(=O)N[C@@H](CC(N)=O)C(=O)N[C@H](C(=O)N[C@@H](CC(C)C)C(=O)N[C@@H](CCC(N)=O)C(=O)N[C@@H](CCCCN)C(=O)N[C@@H](CCCNC(=N)N)C(N)=O)[C@@H](C)CC)C2=O)C(C)C)cc1)C(C)C (some centres not stated),Activity,Huh-7 [1],Active
same,Activity,Hep 3B2,41.26%
same,Activity,Huh-7 [2],50.55%
same,Activity,Huh-7 [3],37.22%
same,Activity,Huh-7 [4],12.12%
same,Activity,Huh-7 [5],11.54%
same,Activity,LX-2 [6],13.04%
same,Activity,LX-2 [7],38.15%
same,Activity,LX-2 [8],15.25%
same,Activity,Huh-7 [9],31.13%
same,Activity,Huh-7 [10],24.32%
same,Activity,Huh-7 [11],28.27%
same,Activity,Huh-7 [12],Active
same,Activity,Huh-7 [13],18
same,Activity,Huh-7 [14],15%
same,Activity,Huh-7 [15],Active
same,Activity,Huh-7 [16],Active
